Here are results for two molecules from US20240399032A1, “HYDROGEL FOR PROMOTING GROWTH OF MESENCHYMAL STEM CELLS, AND PREPARATION METHOD AND APPLICATION METHOD THEREOF” (The Fifth People's Hospital of Hainan Province, priority 2023, published 2024).

For assay [1], the system named is skin scratch model rat. As to the kind of experiment: Treatment of wound of skin scratch model DM rat. Format: in vivo. As to conditions: applied daily on wound of left hindfoot; for time until wound healed: mecobalamin H1 group (wound without administration healed too), epalrestat M1 group (without administration healed on eighteenth day). On the procedure:
30 specific pathogen free (SPF) Sprague Dawley (SD) male rats aged 6-8 weeks old (weight 190 g or so) are used to construct as the DM rat model. Specifically, the STZ solution is prepared and used, and the prepared STZ solution is used within 10 minutes. The STZ solution is injected into left lower abdomens of the rats with a single dose of 55 milligrams per kilogram (mg/kg). After a week of the intraperitoneal injection of the STZ solution, the rats are in abrosia but can have water for 12 hours (h), thereafter blood glucose of the rats is detected, and the rats with blood glucose value above 12.6 […] are selected as the DM rat model. The 30 SPF SD male rats are all constructed as the DM rat model, 12 rats died before diabetic foot administration, and 2 rats died during the administration but not appearing effectiveness. Six DM model rats are selected for normal feeding for four weeks. After anesthesia, round skin wounds with each diameter of 5 mm are created on dorsal sides of hindfoots of the DM model rats to generate foot gangrene, as shown in FIG. 2. And then, the DM model rats continue to be fed regularly and the skin wounds of the DM model rats are observed every day. Therapeutic drug of mecobalamin (H1 group) is applied daily on the wound disposed on the left hindfoot of the skin scratch model rat, and then the wound of the model rat is observed. […] Therapeutic drug of epalrestat (M1 group) is applied daily on the wound disposed on the left hindfoot of the skin scratch model rat, and then the wound of the model rat is observed. After 13 days of continuous administration, the wound healed, and at the same time, the wound of the skin scratch model rat without administration healed on the eighteenth day. […] The hydrogels (T1 group, T2 group, T3 group, T4 group) are applied daily on the wounds disposed on the left hindfoots of four skin scratch model rats, and then the wounds of the 4 model rats are observed. […]

Assay [2] deals with Staphylococcus aureus model rat. Description: Treatment of wound (foot gangrene) of Staphylococcus aureus model DM rat. Particulars: applied daily on wound of left hindfoot. Format: in vivo. On the procedure: 30 specific pathogen free (SPF) Sprague Dawley (SD) male rats aged 6-8 weeks old (weight 190 g or so) are used to construct as the DM rat model. Specifically, the STZ solution is prepared and used, and the prepared STZ solution is used within 10 minutes. The STZ solution is injected into left lower abdomens of the rats with a single dose of 55 milligrams per kilogram (mg/kg). After a week of the intraperitoneal injection of the STZ solution, the rats are in abrosia but can have water for 12 hours (h), thereafter blood glucose of the rats is detected, and the rats with blood glucose value above 12.6 […] are selected as the DM rat model. The 30 SPF SD male rats are all constructed as the DM rat model, 12 rats died before diabetic foot administration, and 2 rats died during the administration but not appearing effectiveness. Six DM model rats are selected. At the third week, dorsal sides of hindfoots of the DM model rats are subcutaneously injected 10 μL of suspension containing more than […] Staphylococcus aureus, thereby obtaining a DM animal model with foot infection (also referred to as extremity infection). It can be seen from FIG. 1, on the sixth day, spontaneous foot gangrene occurs, and on the seventh day and eighth day, the foot gangrene is gradually obvious. […]

As for `CC(/C=C1\SC(=S)N(CC(=O)O)C1=O)=C\c1ccccc1` [epalrestat, Epalrestat], the “time until wound healed” value in assay [1] was 13 days.

As for `C/C1=C2/[N-][C@H]([C@H](CC(N)=O)[C@@]2(C)CCC(=O)NC[C@@H](C)OP(=O)([O-])O[C@H]2[C@@H](O)[C@@H](n3cnc4cc(C)c(C)cc43)O[C@@H]2CO)[C@]2(C)N=C(/C(C)=C3N=C(/C=C4N=C1[C@@H](CCC(N)=O)C\4(C)C)[C@@H](CCC(N)=O)[C@]\3(C)CC(N)=O)[C@@H](CCC(N)=O)[C@]2(C)CC(N)=O.[CH3-].[Co+3]` [mecobalamin, Mecobalamin], the “time of administration until wound / foot gangrene healed” value in assay [2] (mecobalamin H4 group (untreated wound healed as well), hydrogel T10 group (control healed after 7 days)) is 5 days. In assay [2] (mecobalamin H4 group, hydrogel T10 group, same area of foot gangrene), the “healing of treated wound compared with untreated wound / control group” value was “no significant difference”. Besides, in assay [1] (H1, M1, T1-T4 groups), the “effect on wound healing” value is given as “no significant promoting effect”. Besides, the “time until wound healed” value in assay [1] was determined as 11 days.
